Test results as given in patent US11414677B2, “Methods and compositions for performing continuous directed evolution” (Massachusetts Institute of Technology, priority 2017, dated 2022).
Marks after values point to notes of the source that are not given here.

What was measured:
RFP.ΔAdPol.adenovirus = experiment: Time course of antibiotic inhibition of adenoviral replication; format: cell-based, Adenovirus type 5; conditions: treatment initiated 24 h post-infection
Source text: FIGS. 47A-47B. Time-course of antibiotic-mediated inhibition of adenoviral infection. HEK293A cells expressing wild-type AdPol were infected with RFP.ΔAdPol.adenovirus and treated with either a) puromycin, or b) blasticidin at various time points post-infection (h.p.i.=hours post-infection). After 2 days, the infections were harvested and titered by flow cytometry. Titers are given in infectious units per milliliter (IU/mL), defined as the volume of adenoviral supernatant required to induce fluorescence in a cell as analyzed by flow cytometry. Dashed line represents the limit of detection (L.O.D) of the assay. Titers below this limit are inaccurate due to the percentage of infected cells being below the 1% error threshold of flow cytometry.
RFP.ΔAdPol.adenovirus (TABLE 16) was used to infect a 24-well plate of wild-type AdPol cells (150,000 cells/well) (TABLE 17) at MOI=1, and either blasticidin or puromycin was added at various time points following the infection. Viral supernatants were harvested ˜48 h post-infection, and titered by flow cytometry as described above.

[1] = tested on: ΔAdPol.adenovirus encoding either tTA or RFP; experiment: tTA-induced resistance to antibiotic inhibition of adenoviral replication; format: cell-based, Adenovirus type 5; conditions: treatment 10 h post-infection
Experimental: FIGS. 48A-48D. tTA-induced resistance to antibiotic mediated inhibition of adenoviral infection. Either wild-type AdPol cells, TRE3G.puroR cells, or TRE3G.blastR cells were infected with ΔAdPol.adenovirus encoding either tTA (+tTA) or RFP (−tTA). Ten hours post-infection, wild-type AdPol cells were treated with either puromycin (FIG. 48A) or (FIG. 48B) blasticidin, TRE3G.puroR cells were treated with puromycin (FIG. 48C), and TRE3G.blastR cells were treated with blasticidin (FIG. 48D). After 2, days, the infections were harvested and titered by flow cytometry. Titers are given in infectious units per milliliter (IU/mL), defined as the volume of adenoviral supernatant required to induce fluorescence in a cell as analyzed by flow cytometry. Dashed line represents the limit of detection (L.O.D) of the assay. Titers below this limit are inaccurate owing to the percentage of infected cells being below the 1% error threshold of flow cytometry.
Either RFP.ΔAdPol.adenovirus, or tTA.mCherry.ΔAdPol.adenovirus (TABLE 16) was used to infect a 24-well plate of either wild-type AdPol cells, TRE3G.puroR cells, or TRE3G.blastR cells (150,000 cells/well) (TABLE 17) at MOI=1, and either puromycin or blasticidin was added 10 h post-infection. Viral supernatants were harvested ˜48 h post-infection, and titered by flow cytometry as described above.

HEK293A cells = experiment: Resazurin assay to assess acute toxicity of common tissue culture antibiotics; format: cell-based, human; conditions: two-day treatment; for acute toxicity (cell viability by resazurin fluorescence): various concentrations
Experimental: FIGS. 46A-46D. Resazurin assay to assess acute toxicity of common tissue culture antibiotics. HEK293A cells were treated for two days with either G418 (FIG. 46A), puromycin (FIG. 46B), blasticidin (FIG. 46C), or hygromycin (FIG. 46D), and cell viability was analyzed by resazurin fluorescence.
A 96-well plate was seeded with HEK293A cells (˜15,000) and treated with either puromycin HCl (Corning), Hygromycin B (Thermo Fisher), Blasticidin S HCl (Thermo Fisher), or G418 (Enzo). Two days later, 10 μL of 0.1 mg/mL resazurin (MilliporeSigma) was added and incubated for 1.5 h. Media was transferred to a fresh 96-well plate and fluorescence was analyzed on a Bio-Tek Synergy H1 Hybrid Microplate Reader.

[2] = tested on: endogenous tTA operator (pLVX-TRE3G.eGFP reporter); experiment: Reverse genetics of tTA variants with pLVX-TRE3G.eGFP reporter in HEK293A cells; format: cell-based, human; conditions: transient co-transfection with eGFP reporter, presence or absence of 20 μM dox
Source text: FIGS. 22A-22F. FIG. 22A. Serial-passaging schemes for evolving functional tTA variants that gain dox resistance in human cells. Two approaches to selection pressure were used, either with increasing dox concentrations (Trial 1) or a constant, moderate dox concentration (Trial 2). FIG. 22B. tTA-induced GFP expression in the presence of dox after each round of evolution for Trial 1. Phenotyping cells were infected with passaged viral populations and analyzed by flow cytometry. The percentage of infected GFP-positive cells at each passage in the presence of dox was normalized to the percentage of infected GFP-positive cells at each passage in the absence of dox. N.D.=not detectable owing to low viral titer. FIG. 22C. Non-reference allele frequencies for all mutations observed at >1% frequency over the course of the directed evolution experiment for Trial 1 (see FIG. 28 for Trial 2). […]
HEK-293A cells were seeded in a 12-well plate at ˜4×10^5 cells/well. […] 48 h post-transfection, cells were analyzed by flow cytometry (see above for sample preparation). Promoter activity was calculated based on the mean fluorescence intensity of GFP fluorescence, backgated for only mCherry-expressing cells.
HEK-293A cells were seeded in a 12-well plate (˜400,000 cells/well). […] 48 h post-transfection, samples were stained with 0.2 μg/mL DAPI, and analyzed on a BD LSR II analyzer.

[3] = tested on: AdGLΔPol adenoviral genome; experiment: Mutagenesis rate determination by serial passaging and deep sequencing of a 6.5 kb fragment; format: cell-based, Adenovirus type 5
Experimental: The mutagenic potential of AdPol variants was evaluated following a previously reported protocol (Uil T. G. et al., Nucleic Acids Res. 39, e30 (2011)). Briefly, a polymerase-deleted Ad5, AdGLΔPol, was subjected to 10 serial passages on cultures of 911 cells (Fallaux F. J. et al., Hum. Gene Ther. 7, 215-222 (1996)) expressing EP-Pol in order to accumulate mutations. After 10 serial passages, 911 cells expressing wild-type AdPol were infected in a 6-well plate at ˜50 plaque-forming units/well in order to amplify pools of 50 viral clones for sequencing. Using pools of 50 or fewer clonal viruses ensured that mutations present in only one clone will be present at a frequency above the threshold of detection. From each 50-clone viral pool, a 6.5-kb fragment was amplified and prepared for deep sequencing. Libraries were subjected to 32 cycles of single-read sequencing by an Illumina Genome Analyzer II.
The mutagenic potential of EP-Pol was evaluated following a previously reported protocol (Uil T. G. et al., Nucleic Acids Res., 39(5): e30 (2011)). Briefly, a polymerase-deleted Ad5, AdGLΔAdPol, was subjected to 10 serial passages on cultures of 911 cells expressing EP-Pol in order to accumulate mutations. After 10 serial passages, 911 cells expressing wild-type AdPol were infected in a 6-well plate at ˜50 plaque-forming units/well in order to amplify pools of 50 viral clones for sequencing. Using pools of 50 or fewer clonal viruses ensures that mutations present in only one clone will be present at a frequency above the threshold of detection. From each 50-clone viral pool, a 6.5 kb fragment was amplified and prepared for deep sequencing. Libraries were subjected to 32 cycles of single-read sequencing by an Illumina Genome Analyzer II (GA-II).

Molecule: COc1ccc(C[C@H](N)C(=O)N[C@H]2[C@@H](O)[C@H](n3cnc4c(N(C)C)ncnc43)O[C@@H]2CO)cc1 [puromycin]
- inhibition of adenoviral replication (RFP.ΔAdPol.adenovirus): Neither puromycin nor blasticidin were able to inhibit adenoviral replication
- effect on ΔAdPol.adenovirus replication ([1]; TRE3G.puroR cell line): equally toxic to both tTA-expressing and RFP-expressing ΔAdPol.adenovirus
- effect on ΔAdPol.adenovirus replication ([1]; wild-type AdPol cell line): inhibited both RFP-expressing and tTA-expressing ΔAdPol.adenovirus replication
- dynamic range of inhibitory concentrations (HEK293A cells): less than two orders of magnitude
- acute toxicity (cell viability by resazurin fluorescence) (HEK293A cells): completely toxic

Molecule: CN[C@@H]1[C@@H](O)[C@@H](O[C@@H]2[C@@H](O)[C@H](O[C@H]3O[C@H]([C@@H](C)O)[C@@H](O)[C@H](O)[C@H]3N)[C@@H](N)C[C@H]2N)OC[C@]1(C)O [G418]
- acute toxicity (cell viability by resazurin fluorescence) (HEK293A cells): only mildly toxic at the highest concentrations

Molecule: H100Y: tTA variant with single amino acid substitution H100Y, fixed in Trial 2
- dox-resistance of tTA variant [2]: confer dox-resistance

Molecule: E147K: tTA variant with single amino acid substitution E147K, fixed in Trial 1
- dox-resistance of tTA variant [2]: confer dox-resistance

B1: EP-Pol (protein)
chain: MALAQAHRARRLHAEAPDSGDQPPRRRVRQQPTRAAPAPARARRRRAPAPSPGGSGAPPTSGGSPASPLLDASSKDTPAAHRPPRGTVVAPRGCGLLQAIDAATNQPLEIRYHLDLARALTRLCEVNLQELPPDLTPRELQTMDSSHLRDVVIKLRPPRADIWTLGSRGVVVRSTVTPLEQPDGQGQAAEVEDHQPNPPGEGLKFPLCFLVRGRQVNLVQDVQPVHRCQYCARFYKSQHECSARRRDFYFHHINSHSSNWWREIQFFPIGSHPRTERLFVTYDVETYTWMGAFGKQLVPFMLVMKFGGDEPLVTAARDLAANLGWDRWEQDPLTFYCITPEKMAIGRQFRTFRDHLQMLMARDLWSSFVASNPHLADWALSEHGLSSPEELTYEELKKLPSIKGIPRFLELYIVGHNINGYDEIVLAAQVINNRSEVPGPFRITRNFMPRAGKILFNDVTFALPNPRSKKRTDFLLWEQGGCDDTDFKYQYLKVMVRDTFALTHTSLRKAAQAYALPVEKGCCAYQAVNQFYMLGSYRSEADGFPIQEYWKDREEFVLNRELWKKKGQDKYDIIKETLDYCALDVQVTAELVNKLRDSYASFVRDAVGLTDASFNVFQRPTISSNSHAIFRQIVFRAEQPARSNLGPDLLAPSHELYDYVRASIRGGRCYPTYLGILREPLYVYDICGMYASALTHPMPWGPPLNPYERALAARAWQQALDLQGCKIDYFDARLLPGVFTVDADPPDETQLDPLPPFCSRKGGRLCWTNERLRGEVATSVDLVTLHNRGWRVHLVPDERTTVFPEWRCVAREYVQLNIAAKERADRAKNQTLRSIAKLLSNALYGSFATKLDNKKIVFSDQMDAATLKGITAGQVNIKSSSFLETDNLSAEVMPAFQREYSPQQLALADSDAEESEDERAPTPFYSPPSGTPGHVAYTYKPITFLDAEEGDMCLHTLERVDPLVDNDRYPSHLASFVLAWTRAFVSEWSEFLYEEDRGTPLEDRPLKSVYGDTDSLFVTERGHRLMETRGKKRIKKHGGNLVFDPERPELTWLVECETVCGACGADAYSPESVFLAPKLYALKSLHCPSCGASSKGKLRAKGHAAEGLDYDTMVKCYLADAQGEDRQRFSTSRTSLKRTLASAQPGAHPFTVTQTTLTRTLRPWKDMTLARLDEHRLLPYSESRPNPRNEEICWIEMPYPYDVPDYA
modifications: HA tag
- Substitution load per million bp ([3]; 6020 bp analyzed, 27.3 clones estimated): 365 per million bp
- mutations introduced into the genome ([3]; adenoviral genome ~35 kb): ~1.3 mutations per infected cell pe
- Substitutions per Ad genome per viral generation ([3]; assuming a genome size of 36 kb, 27.3 genomes, 10 passages = 10 generations): 1.31**
- mutation rate relative to the error rate of wild-type AdPol evaluated by the same method ([3]; comparison with Uil et al. 2011): ~370 fold
- mutation rate ([3]; next-generation sequencing of a 6.5 kb region in a small pool of passaged clones): approximately 3.7×10^−5 per base per cell infection cycle
